The target in this assay is BCL6 (Homo sapiens (Human), UniProt P41182). Briefly: Immunofluorescence high content imaging of BCL6 degradation in T47D cells. Format: cell-based. Conditions: for Dmax: T47D. Put shortly: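 Seed T47D in RPMI1640-10% FBS to reach ~70-90% confluence at endpoint; add degrader next day (11-point 3-fold series, top 0.1 or 1 μM final) for 3 days. Then fix, permeabilize, stain BCL6 with nuclear Hoechst, and image.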

Bounds are passed on as bounds.

`CCn1c(=O)c(OCC(=O)NC)cc2cc(Nc3nc(N4CCN(CC5CCN(c6ccc7c(c6)C(=O)N(C6CCC(=O)NC6=O)C7=O)CC5)CC4)ncc3Cl)ccc21` (stereo not drawn) [compound 250, 2-((6-((5-chloro-2-(4-((1-(2-(2,6-dioxopiperidin-3-yl)-1,3-dioxoisoindolin-5-yl)piperidin-4-yl)methyl)piperazin-1-yl)pyrimidin-4-yl)amino)-1-ethyl-2-oxo-1,2-dihydroquinolin-3-yl)oxy)-N-methylacetamide] registered an IC50 below 10 nM and a Dmax of 50 to 70%.
For the compound `CNC(=O)COc1cc2cc(Nc3nc(N4CCC(CCOC5CN(c6cccc7c6C(=O)N(C6CCC(=O)NC6=O)C7=O)C5)CC4)ncc3Cl)ccc2n(C)c1=O` (stereo not drawn) [compound 252, 2-((6-((5-chloro-2-(4-(2-((1-(2-(2,6-dioxopiperidin-3-yl)-1,3-dioxoisoindolin-4-yl)azetidin-3-yl)oxy)ethyl)piperidin-1-yl)pyrimidin-4-yl)amino)-1-methyl-2-oxo-1,2-dihydroquinolin-3-yl)oxy)-N-methylacetamide], the IC50 was below 10 nM and the Dmax is 50 to 70%.
In turn, `CNC(=O)COc1cc2cc(Nc3cc(N4CCN(CC5CCN(c6ccc7c(c6)C(=O)N(C6CCC(=O)NC6=O)C7=O)CC5)CC4)ncc3Cl)ccc2n(C)c1=O` (stereo not drawn) [compound 253, 2-((6-((5-chloro-2-(4-((1-(2-(2,6-dioxopiperidin-3-yl)-1,3-dioxoisoindolin-5-yl)piperidin-4-yl)methyl)piperazin-1-yl)pyridin-4-yl)amino)-1-methyl-2-oxo-1,2-dihydroquinolin-3-yl)oxy)-N-methylacetamide] showed a Dmax of at least 70%.
As to `CNC(=O)COc1cc2cc(Nc3nc(N4CCN(CC5CCN(c6ccc7c(c6)C(=O)N(C6CCC(=O)NC6=O)C7=O)CC5)CC4)c(Cl)cc3Cl)ccc2n(C)c1=O` (stereo not drawn) [compound 254, 2-((6-((3,5-dichloro-6-(4-((1-(2-(2,6-dioxopiperidin-3-yl)-1,3-dioxoisoindolin-5-yl)piperidin-4-yl)methyl)piperazin-1-yl)pyridin-2-yl)amino)-1-methyl-2-oxo-1,2-dihydroquinolin-3-yl)oxy)-N-methylacetamide], the IC50 is at least 100 nM.
Consider `CNC(=O)COc1cc2cc(Nc3nc(N4CCC(OC5CN(c6cccc7c6C(=O)N(C6CCC(=O)NC6=O)C7=O)C5)CC4)ncc3Cl)ccc2n(C)c1=O` (stereo not drawn) [compound 255, 2-((6-((5-chloro-2-(4-((1-(2-(2,6-dioxopiperidin-3-yl)-1,3-dioxoisoindolin-4-yl)azetidin-3-yl)oxy)piperidin-1-yl)pyrimidin-4-yl)amino)-1-methyl-2-oxo-1,2-dihydroquinolin-3-yl)oxy)-N-methylacetamide], for which the IC50 was below 10 nM and the Dmax was below 50%.
For `CNC(=O)COc1cc2cc(Nc3nc(N4CCC(CN5CC6(C5)CN(c5cccc7c5C(=O)N(C5CCC(=O)NC5=O)C7=O)C6)CC4)ncc3Cl)ccc2n(C)c1=O` (stereo not drawn) [compound 256, 2-((6-((5-chloro-2-(4-((6-(2-(2,6-dioxopiperidin-3-yl)-1,3-dioxoisoindolin-4-yl)-2,6-diazaspiro[3.3]heptan-2-yl)methyl)piperidin-1-yl)pyrimidin-4-yl)amino)-1-methyl-2-oxo-1,2-dihydroquinolin-3-yl)oxy)-N-methylacetamide], in that order: below 10 nM and 50 to 70%.
Regarding `CC(=O)COc1cc2cc(Nc3nc(N4CCN(C(C)(C)C5CCN(c6ccc7c(c6)C(=O)N(C6CCC(=O)NC6=O)C7=O)CC5)CC4)ncc3Cl)ccc2n(C)c1=O` (stereo not drawn) [compound 257, 5-(4-(2-(4-(5-chloro-4-((1-methyl-2-oxo-3-(2-oxopropoxy)-1,2-dihydroquinolin-6-yl)amino)pyrimidin-2-yl)piperazin-1-yl)propan-2-yl)piperidin-1-yl)-2-(2,6-dioxopiperidin-3-yl)isoindoline-1,3-dione], the IC50 is 10 to 50 nM and the Dmax was at least 70%.

The values are drawn from US12310975B2, “Modulators of BCL6 proteolysis and associated methods of use” (Arvinas Operations, Inc., priority 2019, dated 2025).
